According to patent US5723580A, “Ketomethylene group-containing aldehyde cysteine and serine protease inhibitors” (Cephalon, Inc., priority 1996, dated 1998):

Tests used:
Assay type in all cases: biochemical
Calpain I = biological target: T1, Calpain I (Homo sapiens, UniProt P07384); test: Inhibition of calpain I activity (fluorescence, Succ-Leu-Tyr-MNA substrate hydrolysis); details: 0.2 mM Succ-Leu-Tyr-MNA, pH 7.5
T1 construct: made in house
T1 sequence (P07384 1-714): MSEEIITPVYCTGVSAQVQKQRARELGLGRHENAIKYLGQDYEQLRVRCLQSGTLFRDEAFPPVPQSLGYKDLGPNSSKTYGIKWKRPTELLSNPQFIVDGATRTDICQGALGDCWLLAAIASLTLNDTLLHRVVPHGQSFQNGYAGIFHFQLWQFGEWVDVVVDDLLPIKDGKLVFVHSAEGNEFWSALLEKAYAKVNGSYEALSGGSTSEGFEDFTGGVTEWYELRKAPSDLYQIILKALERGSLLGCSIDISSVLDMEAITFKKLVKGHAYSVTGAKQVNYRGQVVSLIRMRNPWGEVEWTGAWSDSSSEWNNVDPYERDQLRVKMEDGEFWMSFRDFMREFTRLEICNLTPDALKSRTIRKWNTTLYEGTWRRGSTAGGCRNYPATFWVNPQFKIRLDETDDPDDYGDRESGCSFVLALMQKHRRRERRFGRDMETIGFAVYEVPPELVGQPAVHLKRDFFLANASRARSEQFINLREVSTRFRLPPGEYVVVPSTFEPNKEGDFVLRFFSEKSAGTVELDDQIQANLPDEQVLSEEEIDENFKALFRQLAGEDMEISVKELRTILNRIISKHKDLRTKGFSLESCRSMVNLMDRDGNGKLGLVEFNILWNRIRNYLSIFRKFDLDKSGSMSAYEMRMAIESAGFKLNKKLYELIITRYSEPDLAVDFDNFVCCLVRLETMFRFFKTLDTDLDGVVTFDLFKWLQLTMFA
T1 sequence (P04632 1-268 partner): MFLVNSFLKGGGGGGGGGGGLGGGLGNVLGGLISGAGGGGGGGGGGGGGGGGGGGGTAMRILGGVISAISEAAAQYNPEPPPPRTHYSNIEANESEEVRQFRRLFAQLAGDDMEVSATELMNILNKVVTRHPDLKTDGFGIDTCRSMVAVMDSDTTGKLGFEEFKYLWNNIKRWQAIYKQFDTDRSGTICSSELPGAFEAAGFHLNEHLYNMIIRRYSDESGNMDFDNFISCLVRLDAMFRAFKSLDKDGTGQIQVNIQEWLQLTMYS
Procedure: (§1) To evaluate inhibitory activity, stock solutions (40 times concentrated) of each compound to be tested were prepared in 100% anhydrous DMSO and 5 μL of each inhibitor preparation were aliquoted into each of three wells of a 96-well plate. Calpain I, prepared by a modification of the method of W. J. Lee et al. (Biochem. Internatl. 22: 163-171 (1990)), was diluted into assay buffer (i.e., 50 mM Tris, 50 mM NaCl, 1 mM EDTA, 1 mM EGTA, and 5 mM-mercaptoethanol, pH 7.5 including 0.2 mM Succ-Leu-Tyr-MNA) and 175 μL aliquoted into the same wells containing the independent inhibitor stocks as well as to positive control wells containing 5 μL DMSO, but no compound. To start the reaction, 20 μL of 50 mM CaCl2 in assay buffer was added to all wells of the plate, excepting three, which were used as background signal baseline controls. Substrate hydrolysis was monitored every 5 minutes for a total of 30 minutes using a Fluoroskan II fluorescence plate reader. Substrate hydrolysis in the absence of inhibitor was linear for up to 15 minutes.
(§2) Inhibition of calpain I activity was calculated as the percent decrease in the rate of substrate (S) hydrolysis in the presence of inhibitor (I) relative to the rate in its absence (o). […] The results were plotted as % inhibition versus log inhibitor concentration and the IC50 was calculated from linear regression of the data.

α-chymotrypsin = test: Inhibition of α-chymotrypsin (Succ-Ala-Ala-Pro-Phe-AMC substrate); details: @10 uM; 0.03 mM Succ-Ala-Ala-Pro-Phe-AMC, pH 7.5
Procedure: as §1, with “To start the reaction, 20 μL of 50 mM CaCl2 in assay buffer was added to all wells of the plate, excepting three, which were used as background signal baseline controls.” left out, “Substrate hydrolysis in the absence of inhibitor was linear for up to 15 minutes.” left out
Additionally, because α-chymotrypsin is not a calcium sensitive enzyme and is constitutively active, following addition of inhibitor stocks to the 96 well plates, 100 μl of a 2-fold concentrated stock of enzyme in dilution buffer was first added and the reaction started by addition of 100 μl of a 2-fold concentrated stock of substrate in assay buffer. Substrate hydrolysis was monitored every 5 minutes up to 30 minutes using a Fluoroskan II ([…]). […]

cathepsin L = test: Inhibition of cathepsin L activity (Cbz-Phe-Arg-AMC substrate); details: @1 uM; 0.006 mM Cbz-Phe-Arg-AMC, pH 6.0
Procedure: as §1, with “To start the reaction, 20 μL of 50 mM CaCl2 in assay buffer was added to all wells of the plate, excepting three, which were used as background signal baseline controls.” left out, “Substrate hydrolysis in the absence of inhibitor was linear for up to 15 minutes.” left out
as §2
(§3) Additionally, the order of reagents added to the plate was altered because both enzymes are constitutively active. […] Substrate hydrolysis was monitored using a Fluoroskan II (ex=390 nm; em=460 nm).

thrombin = test: Inhibition of thrombin (Bz-Phe-Val-Arg-AMC substrate); details: @10 uM; 25 μM Bz-Phe-Val-Arg-AMC, pH 7.5
cathepsin B = test: Inhibition of cathepsin B activity (Cbz-Phe-Arg-AMC substrate); details: @1 uM; 0.1 mM Cbz-Phe-Arg-AMC, pH 6.0
Procedure: as §1, with “To start the reaction, 20 μL of 50 mM CaCl2 in assay buffer was added to all wells of the plate, excepting three, which were used as background signal baseline controls.” left out, “Substrate hydrolysis in the absence of inhibitor was linear for up to 15 minutes.” left out
as §2, §3

## CC(C)CC(CC(=O)[C@H](CC(C)C)NC(=O)OCc1ccccc1)C(=O)N[C@H](C=O)CC(C)C (stereo partly drawn) [compound 7, Z-Leu-Psi[COCH2 ]Leu-Leu-H]
Calpain I
  IC50: 12 nM
α-chymotrypsin
  Chymotrypsin % I: 53%
Cathepsin L
  Cat L % I: 100%
thrombin
  Thrombin % I: 0%
Cathepsin B
  Cat B % I: 97%
